According to US10711000B2 (Fronthera U.S. Pharmaceuticals LLC, priority 2018, dated 2020):
Where two headings read alike, the source gives them in different places.

Experiments:
[1] = Pharmacokinetics after a single oral dose in SD rats; assay type: in vivo; details: Sprague-Dawley, rat, plasma, single oral dose in 0.5% methylcellulose; for half-life: read-out: T½ (converted)
Excerpt: (§1) The pharmacokinetics and pharmacodynamics of test compounds after a single oral dose were investigated in SD rats, Beagle dog and Cynomolgus monkey. SD Rats (200-250 g) were purchased from Beijing Vital River Laboratory Animal Technology Co., Ltd. Male Beagle Dog, 6-9 kg, were purchased from Beijing Mashall. Male Cynomolgus monkeys, 3-5 kg, were purchased from Suzhou Xishan Zhongke Drugs Research and Development Co., Ltd. Following arrival, the animals were acclimated for 7 days in individual cages maintained at ambient temperature, 34 to 68% relative humidity, and 12-h light/dark cycles. Just prior to dose administration the rats were fasted overnight with free access to water. Animals were given 10 mL/kg of formulated compound in 0.5% methylcellulose (MC) by oral gavage, and the animals were fed four hours after dosing. The animals were manually restrained at the designated time points (pre-dose, 0.5, 1, 3, 6, 9, 12, and 24 h post-dose) to collect blood. Approximately 120 μL of blood was collected via orbital sinus into K2EDTA tubes. The blood samples were centrifuged at 5000 rpm for 10 min at 4° C. to obtain plasma samples.
To determine the compound concentration in the plasma samples, a 10× calibration standard of compound were prepared by serial dilution in DMSO: 20000, 10000, 5000, 2000, 1000, 500, 200, 100, 50, 20, and 10 ng/mL. 3 μL of calibration standard solution was added into 27.0 μL of blank plasma in 1.5-mL microcentrifuge tubes to generate 1× calibration standards. The 30.0 μL of standards or study plasma was mixed with 200 μL of acetonitrile (containing 5 ng/mL verapamil for internal control) in a 1.5-mL microcentrifuge tube. After vertexing for 1 minute and centrifuging at 10000 rpm for 10 min, 180 μL of supernatant was transferred into a 96-well plate and the compound concentration in the plasma was quantitated using LC/MS/MS together with standards. Briefly, 1 μL of the solutions were injected for LC-MS/MS analysis using an Agilent Zorbax C18 column (50×2.1 mm, 3.5 μm) with mobile phase A [5 mM NH4Ac (0.1% FA)] and phase B [Methanol (0.1% FA)]. Mass spectrometer parameters optimization for compound was performed by infusing standard diluted at 1 μg/mL in water/methanol (1/1, v/v) directly in the ionization source at a flow of 10 μL/min. Quantitative data were acquired in multiple reaction monitoring (MRM) positive APCI mode.

Autotaxin [2] = molecular target: T1, Autotaxin (Rattus norvegicus, UniProt Q64610); test: Pharmacodynamics: LPA 18:2 inhibition in plasma of SD rats after oral dose; details: single oral dose, LPA18:2 inhibition vs plasma concentration of compound, read-out: In vivo rat IC50 (LPA 18:2) (converted)
T1 construct: from tissue; host or cells: SD rats in vivo; plasma sampled after a single oral dose
Excerpt: as §1
Autotaxin is a secreted phosphodiesterase that converts lysophosphatidylcholine (LPC) into lysophosphatidic acid (LPA), and LPA 18:2 formation was used to evaluate the efficacy of autotaxin inhibitors. Therefore, the LPA 18:2 formation in response to drug administration was analyzed in each time point to assess the pharmacodynamics of test compounds. To determine the LPA18:2 concentration in study plasma, a 10× calibration standard of LPA 18:2 were prepared by serial dilution in butyl alcohol: 20000, 10000, 5000, 2000, 1000, 500, 200, 100, 50, 20, and 10 ng/mL. 3 μL of calibration standard solution was added into 27.0 μL of blank plasma in 1.5-mL microcentrifuge tubes to generate 1× calibration standards. The 30.0 μL of standards or study plasma was added into 1.5-mL microcentrifuge tubes. 200 μL of butyl alcohol (containing 25.0 ng/mL LPA17:0 for internal control) was added into each 1.5-mL microcentrifuge tube containing study plasma or calibration standards. After vortexing for 1 minute and centrifuging at 10000 rpm for 10 min, 180 μL of supernatant was transferred into a 96-well plate and the LPA18:2 concentration in the plasma was quantitated using LC/MS/MS together with standards. Briefly, 8 μL of the solutions were injected for LC-MS/MS analysis using an ACQUITY UPLC BEH C18 column (2.1×50 mm, 1.7 μm) with mobile phase A [20 mM NH4OAC in water (0.1% FA)] and phase B [5 mM NH4OAC in water/0.2% FA in ACN=5:95]. Mass spectrometer parameters optimization for LPA18:2 were performed by infusing standard diluted at 1 μg/mL in butyl Alcohol directly in the ionization source, at a flow of 10 μL/min. Deprotonated molecular ion at m/z 433.2 ([M−H]−) for LPA18:2, and abundant product ion at m/z 152.8 for LPA18:2 were obtained. Quantitative data were acquired in multiple reaction monitoring (MRM) negative electrospray ionization mode
The percentage of LPA18:2 inhibition was plotted against the corresponding concentration of compound and the IC50 was calculated through non-linear regression fitting.

Autotaxin [3] = molecular target: T2, Autotaxin (Homo sapiens, UniProt Q13822); test: LPA formation in pooled human plasma (ex vivo autotaxin inhibition); assay type: biochemical; details: 2 hours incubation
T2 construct: from tissue; host or cells: pooled human plasma
In short: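 Pooled human plasma incubated 2 h with various compound concentrations; LPA 18:2 and 20:4 quantified by LC/MS/MS (negative-ion MRM, LPA17:0 internal standard) after butanol extraction. Inhibition of LPA formation relative to untreated plasma; IC50 by non-linear regression.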

[4] = LPA 18:2 by LC/MS/MS, read-out: LPA formation (18:2) (IC50)
[5] = LPA 20:4 by LC/MS/MS, read-out: LPA formation (20:4) (IC50)

| SMILES | AUC [1] [ng·h/mL] | Cmax [1] [ng/mL] | half-life [1] [h] | IC50 (Autotaxin [2]) [nM] | IC50 (Autotaxin [3]; [4]) [nM] | IC50 (Autotaxin [3]; [5]) [nM] |
| --- | --- | --- | --- | --- | --- | --- |
| CN(c1nc(-c2ccc(F)cc2)c(C#N)s1)c1c(C2CC2)nn2cc(F)c(N3CCN(CC(=O)N4CC(O)C4)CC3)cc12 [Compound 113, 2-((2-cyclopropyl-6-fluoro-5-(4-(2-(3-hydroxyazetidin-1-yl)-2-oxoethyl)piperazin-1-yl)pyrazolo[1,5-a]pyridin-3-yl)(methyl)amino)-4-(4-fluorophenyl)thiazole-5-carbonitrile] | 963 ± 501 | 177 ± 99 | 2.92 ± 0.31 | 14.8 | ≤ 100 | ≤ 100 |
| CN(c1nc(-c2ccc(F)cc2)c(C#N)s1)c1c(C2CC2)nn2cc(F)c(N3CC4(CN(C(=O)[C@H]5CCOC5)C4)C3)cc12 [Compound 114, (S)-2-((2-cyclopropyl-6-fluoro-5-(6-(tetrahydrofuran-3-carbonyl)-2,6-diazaspiro[3.3]heptan-2-yl)pyrazolo[1,5-a]pyridin-3-yl)(methyl)amino)-4-(4-fluorophenyl)thiazole-5-carbonitrile] | 1460 ± 1120 | 140 ± 102 | 3.72 ± 2.5 | 16 | ≤ 100 | ≤ 100 |
| CCn1nc2ncc(N3CC4(CN(C(=O)[C@H]5CCOC5)C4)C3)cc2c1N(C)c1nc(-c2ccc(F)cc2)c(C#N)s1 [Compound 117] | 2210 ± 704 | 584 ± 265 | 4.36 ± 1.3 | 176 | ≤ 100 | ≤ 100 |
| CCn1nc2nc(C)c(N3CCN(CC(=O)N4CC(O)C4)CC3)cc2c1N(C)c1nc(-c2ccc(F)cc2)c(C#N)s1 [Compound 119, 2-((2-ethyl-5-(4-(2-(3-hydroxyazetidin-1-yl)-2-oxoethyl)piperazin-1-yl)-6-methyl-2H-pyrazolo[3,4-b]pyridin-3-yl)(methyl)amino)-4-(4-fluorophenyl)thiazole-5-carbonitrile] | 222 ± 160 | 96.2 ± 73 | 1.64 ± 1.27 | 18.6 | ≤ 100 | ≤ 100 |
| CCn1nc2nc(C)c(N3CC4(CN(C(=O)C5CCOCC5)C4)C3)cc2c1N(C)c1nc(-c2ccc(F)cc2)c(C#N)s1 [Compound 122, 2-((2-ethyl-6-methyl-5-(6-(tetrahydro-2H-pyran-4-carbonyl)-2,6-diazaspiro[3.3]heptan-2-yl)-2H-pyrazolo[3,4-b]pyridin-3-yl)(methyl)amino)-4-(4-fluorophenyl)thiazole-5-carbonitrile] | 1090 ± 544 | 403 ± 341 | 2.99 ± 3 | 26.8 | ≤ 100 | ≤ 100 |
| CCc1nn2cc(C)c(N3CC4(CN(C(=O)[C@H]5CCOC5)C4)C3)cc2c1N(C)c1nc(-c2ccc(F)cc2)c(C#N)s1 [Example 97, (S)-2-((2-ethyl-6-methyl-5-(6-(tetrahydrofuran-3-carbonyl)-2,6-diazaspiro[3.3]heptan-2-yl)pyrazolo[1,5-a]pyridin-3-yl)(methyl)amino)-4-(4-fluorophenyl)thiazole-5-carbonitrile] | 4690 ± 526 | 336 ± 33.8 | 5.41 ± 1.7 | 20 | ≤ 100 | ≤ 100 |
| [2H]c1c(F)c(N2CCN(CC(=O)N3CC(O)C3)CC2)cc2c(N(C)c3nc(-c4ccc(F)cc4)c(C#N)s3)c(CC)nn12 [Example 103, 2-((2-ethyl-6-fluoro-5-(4-(2-(3-hydroxyazetidin-1-yl)-2-oxoethyl)piperazin-1-yl)pyrazolo[1,5-a]pyridin-3-yl-7-d)(methyl)amino)-4-(4-fluorophenyl)thiazole-5-carbonitrile] | 1080 ± 313 | 209 ± 58 | 4.32 ± 1.5 | 48.6 | ≤ 100 | ≤ 100 |
